Earlier results on one compound are cited in patent US20180273582A1, “SMALL MOLECULE AFFINITY MEMBRANE PURIFICATION SYSTEMS AND USES THEREOF” (UNIVERSITY OF NOTRE DAME, priority 2015, published 2018).

SMILES strings stand for the structures.

In this data set the target is nucleotide binding site (NBS) of antibody. The conditions noted are these: antibody NBS region; from reference [43]; read-out: Kd (binding affinity to the conserved NBS region).

For orientation: Kd means the concentration at which binding is half-saturated. On to `O=C(O)CCCc1c[nH]c2ccccc12` [IBA, indole-3-butyric acid], for which the Kd was 1 to 8 µM.
